According to ChEMBL document CHEMBL1201862, “PubChem BioAssay data set” (2004):
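96-well plates; 48 h exposure; 5 concentrations. Endpoints by linear interpolation between flanking doses. Not reached: highest tested concentration assigned. GI50 = concentration required for 50% inhibition of growth.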 Calls of active or inactive are those of the source. Rule as the data show it: active = GI50 up to about 1.1 µM and inactive = higher.

How the values were obtained:
Test in all cases: NCI-60 cell line screen, 48 h
SK-MEL-2 = tested on: SK-MEL-2
786-0 = tested on: 786-0
SNB-19 = tested on: SNB-19
M14 = tested on: M14
IGROV-1 = tested on: IGROV-1
OVCAR-4 = tested on: OVCAR-4
UACC-62 = tested on: UACC-62
Hs-578T = tested on: Hs-578T
NCI/ADR-RES = tested on: NCI/ADR-RES
CAKI-1 = tested on: CAKI-1
TK-10 = tested on: TK-10
SW-620 = tested on: SW-620
HCT-116 = tested on: HCT-116
RXF 393 = tested on: RXF 393
UO-31 = tested on: UO-31
A549 = tested on: A549
HOP-92 = tested on: HOP-92
T47D = tested on: T47D
NCI-H226 = tested on: NCI-H226
RPMI-8226 = tested on: RPMI-8226

| Structure (SMILES) | GI50 (SK-MEL-2) | GI50 (786-0) | GI50 (SNB-19) | GI50 (M14) | GI50 (IGROV-1) | GI50 (OVCAR-4) | GI50 (UACC-62) | GI50 (Hs-578T) | GI50 (NCI/ADR-RES) | GI50 (CAKI-1) | GI50 (TK-10) | GI50 (SW-620) | GI50 (HCT-116) | GI50 (RXF 393) | GI50 (UO-31) | GI50 (A549) | GI50 (HOP-92) | GI50 (T47D) | GI50 (NCI-H226) | GI50 (RPMI-8226) |
| --- | --- | --- | --- | --- | --- | --- | --- | --- | --- | --- | --- | --- | --- | --- | --- | --- | --- | --- | --- | --- |
| C[C@H]1[C@@H](c2ccccc2)O[B-](c2ccccc2)(c2ccccc2)[N+]1(C)C | > 100 µM (inactive) | 78.2 µM (inactive) | > 100 µM (inactive) | 27.7 µM (inactive) | > 100 µM (inactive) | > 100 µM (inactive) | 52 µM (inactive) | 51.9 µM (inactive) | 76.7 µM (inactive) | 34.3 µM (inactive) | 36.3 µM (inactive) | 56.5 µM (inactive) | 49.7 µM (inactive) | 45.5 µM (inactive) | 19.3 µM (inactive) | 74.1 µM (inactive) | 23.8 µM (inactive) | 34.7 µM (inactive) | 37.7 µM (inactive) | 31.3 µM (inactive) |
| COc1ccc2/c(=C/c3ccc(N(C)C)cc3)c3cc(-c4ccccc4)[n+](C)n3c2c1 | 0.18 µM (active) | 0.161 µM (active) | 0.134 µM (active) | 0.139 µM (active) | 0.112 µM (active) | 0.347 µM (active) | 0.199 µM (active) | 0.142 µM (active) | 9.66 µM (inactive) | 1.2 µM (inactive) | 0.239 µM (active) | 0.15 µM (active) | 0.17 µM (active) | 0.59 µM (active) | 0.735 µM (active) | 0.261 µM (active) | 0.0931 µM (active) | 0.0805 µM (active) | 0.265 µM (active) | 0.0263 µM (active) |
| CC/C(Cl)=N\OC(=O)Nc1ccc(OC)cc1 | 18.2 µM (inactive) | 1.65 µM (inactive) | 24 µM (inactive) | 5.19 µM (inactive) | 6.71 µM (inactive) | 16.7 µM (inactive) | 8.57 µM (inactive) | 14.4 µM (inactive) | 6.17 µM (inactive) | 1.65 µM (inactive) | 5.43 µM (inactive) | 2.7 µM (inactive) | 5.86 µM (inactive) | 2.15 µM (inactive) | 7.94 µM (inactive) | 17.2 µM (inactive) | 2.43 µM (inactive) | 5.89 µM (inactive) | 12.2 µM (inactive) | 1.9 µM (inactive) |
| Cc1ccc2nc(-c3ccccc3)c(N=O)n2c1 | > 100 µM (inactive) | 40.9 µM (inactive) | 96.4 µM (inactive) | 68.2 µM (inactive) | 35.5 µM (inactive) | 26.2 µM (inactive) | 22.6 µM (inactive) | 79.4 µM (inactive) | 46.2 µM (inactive) | 37.1 µM (inactive) | 38.3 µM (inactive) | 53.6 µM (inactive) | 35.7 µM (inactive) | > 100 µM (inactive) | 66.8 µM (inactive) | 32.7 µM (inactive) | 77.1 µM (inactive) | 71 µM (inactive) | 29.1 µM (inactive) | 36.1 µM (inactive) |
| CC(=O)OC1CC2CC(=O)CC1N2C (stereo not given) | > 100 µM (inactive) | > 100 µM (inactive) | > 100 µM (inactive) | > 100 µM (inactive) | > 100 µM (inactive) | > 100 µM (inactive) | > 100 µM (inactive) | > 100 µM (inactive) | > 100 µM (inactive) | > 100 µM (inactive) | > 100 µM (inactive) | > 100 µM (inactive) | > 100 µM (inactive) | > 100 µM (inactive) | > 100 µM (inactive) | > 100 µM (inactive) | > 100 µM (inactive) | > 100 µM (inactive) | > 100 µM (inactive) | 68.7 µM (inactive) |
| COC(=O)/C=C\S/C(=C(/c1ccccc1)n1ccc(C(=O)OC)n1)c1ccccc1 | 15.7 µM (inactive) | 12.4 µM (inactive) | 12.7 µM (inactive) | 43.1 µM (inactive) | 58.6 µM (inactive) | 21.9 µM (inactive) | 3.23 µM (inactive) | 26.6 µM (inactive) | 47.6 µM (inactive) | > 100 µM (inactive) | 25.6 µM (inactive) | 82.8 µM (inactive) | 20.5 µM (inactive) | 13.1 µM (inactive) | 13.7 µM (inactive) | 36.6 µM (inactive) | 20.9 µM (inactive) | 24.5 µM (inactive) | > 100 µM (inactive) | 38.9 µM (inactive) |
